Data set [1] is described as follows: in vitro. The settings on record: rat, liver microsomes.
The nature of data set [2]: in vitro. The settings on record: human, liver microsomes. (In general: Liver microsomes are a subcellular fraction often used to study metabolism.)
The nature of data set [3]: Metabolic stability in C57BL/6 mouse liver microsome assessed as half life. The class given is ADME. The settings on record: liver microsomes.
The next data set has as its target Collagenase 3 (Homo sapiens, UniProt P45452). In words: Inhibition of human recombinant MMP13.

The half-life is how long it takes for the measured level to halve. The IC50 is the point on the concentration scale where inhibition reaches its midpoint. As to `C#CCCOC(=O)Nc1ccc2c(c1)sc1cc(S(=O)(=O)N[C@H](C(=O)O)C(C)C)ccc12`, the half-life (in “in vitro [1]”; in “in vitro [2]”; in data set [3]) was above 30 min in each case. The IC50 on Collagenase 3 came out at 23 nM.

Regarding `CCOC(=O)Nc1ccc2c(c1)sc1cc(S(=O)(=O)N[C@@H](C(=O)O)C(C)C)ccc12`, the half-life (in “in vitro [1]”; in “in vitro [2]”; in data set [3]) was above 30 min in each case.

In the case of `CC(C)[C@H](NS(=O)(=O)c1ccc2c(c1)sc1cc(NC(=O)NCc3ccccc3)ccc12)C(=O)O`, the half-life (in “in vitro [1]”; in the data set “in vitro [2]”; in data set [3]) was above 30 min each time. Further, the IC50 on Collagenase 3 is 200 nM.

As for `CCOC(=O)Nc1ccc2oc3cc(S(=O)(=O)N[C@H](C(=O)O)C(C)C)ccc3c2c1`, the half-life (in “in vitro [1]”; in “in vitro [2]”; in data set [3]) was above 30 min in each case.

Regarding `COC(=O)Nc1ccc2c(c1)sc1cc(S(=O)(=O)N[C@H](C(=O)O)C(C)C)ccc12`, the half-life (in “in vitro [1]”; in “in vitro [2]”; in data set [3]) was above 30 min each time. For the same molecule, the IC50 at Collagenase 3 was 632 nM.

Consider `CC(C)[C@H](NS(=O)(=O)c1ccc2sc3cc(NS(C)(=O)=O)ccc3c2c1)C(=O)O`, for which the IC50 on Collagenase 3 was above 25000 nM.

Take `COC(=O)Nc1ccc2c(c1)oc1cc(S(=O)(=O)N[C@H](C(=O)O)C(C)C)ccc12`: the half-life (in the data set “in vitro [1]”; in the data set “in vitro [2]”; in data set [3]) was above 30 min each time. Also, the IC50 on Collagenase 3 came to 505 nM.

For the molecule `CC(C)[C@H](NS(=O)(=O)c1ccc2c(c1)sc1cc(NC(=O)Oc3ccc(F)cc3)ccc12)C(=O)O`, the half-life (in the data set “in vitro [1]”; in “in vitro [2]”; in data set [3]) was above 30 min throughout. In addition, the IC50 at Collagenase 3 is 217 nM.

In the case of `COC(=O)Nc1ccc2c(c1)sc1ccc(S(=O)(=O)N[C@H](C(=O)O)C(C)C)cc12`, the half-life (in “in vitro [1]”; in “in vitro [2]”; in data set [3]) was above 30 min in each case. At Collagenase 3, the IC50 is above 25000 nM.

For `CC(C)[C@@H](NS(=O)(=O)c1ccc2sc3ccccc3c2c1)C(=O)O`, the IC50 on Collagenase 3 was 13800 nM.

For the molecule `COC(=O)Nc1ccc2c(c1)oc1cc(S(=O)(=O)N[C@@H](C(=O)O)C(C)C)ccc12`, the half-life (in “in vitro [1]”; in the data set “in vitro [2]”; in data set [3]) was above 30 min in each case. On Collagenase 3, the IC50 was 215 nM.

Turning to `CC(C)[C@@H](NS(=O)(=O)c1ccc2sc3cc(NS(C)(=O)=O)ccc3c2c1)C(=O)O`, the IC50 at Collagenase 3 was above 25000 nM.

Consider `CC(C)[C@H](NS(=O)(=O)c1ccc2c(c1)oc1cc(NC(=O)NCCc3cccs3)ccc12)C(=O)O`, for which the half-life (in the data set “in vitro [1]”; in the data set “in vitro [2]”; in data set [3]) was above 30 min each time. Moreover, at Collagenase 3, the IC50 stood at 187 nM.

For `CC(C)[C@H](NS(=O)(=O)c1ccc2c(c1)sc1ccc(NS(C)(=O)=O)cc12)C(=O)O`, at Collagenase 3, the IC50 was 1140 nM.

On to `CC(C)[C@H](NS(=O)(=O)c1ccc2c(c1)sc1cc(N)ccc12)C(=O)O`, for which the half-life (in “in vitro [1]”; in the data set “in vitro [2]”; in data set [3]) was above 30 min each time. Besides, the IC50 at Collagenase 3 was above 1000 nM.

For the molecule `COC(=O)Nc1ccc2c(c1)sc1cc(S(=O)(=O)N[C@@H](C(=O)O)C(C)C)ccc12`, the half-life (in the data set “in vitro [1]”; in the data set “in vitro [2]”; in data set [3]) was above 30 min each time. At Collagenase 3, the IC50 amounted to 1350 nM.

Consider `CCOC(=O)Nc1ccc2c(c1)sc1cc(S(=O)(=O)N[C@H](C(=O)O)C(C)C)ccc12`, for which the half-life (in the data set “in vitro [1]”; in the data set “in vitro [2]”; in data set [3]) was above 30 min each time. Moreover, the IC50 on Collagenase 3 was 56 nM.

As to `CC(C)[C@H](NS(=O)(=O)c1ccc2c(c1)oc1cc(N)ccc12)C(=O)O`, the half-life (in “in vitro [1]”; in “in vitro [2]”; in data set [3]) was above 30 min in each case. The IC50 at Collagenase 3 worked out at 1090 nM.

Turning to `CCNC(=O)Nc1ccc2c(c1)sc1cc(S(=O)(=O)N[C@H](C(=O)O)C(C)C)ccc12`, the half-life (in the data set “in vitro [1]”; in the data set “in vitro [2]”; in data set [3]) was above 30 min each time. Moreover, the IC50 on Collagenase 3 was found to be 809 nM.

On to `CC(C)[C@H](NS(=O)(=O)c1ccc2c(c1)sc1cc(NC(=O)Nc3ccccc3)ccc12)C(=O)O`, for which the half-life (in the data set “in vitro [1]”; in “in vitro [2]”; in data set [3]) was above 30 min each time. Besides, the IC50 on Collagenase 3 came out at 269 nM.

With `CC(C)[C@H](NS(=O)(=O)c1ccc2c(c1)sc1cc(NC(=O)Oc3ccccc3)ccc12)C(=O)O`, the half-life (in “in vitro [1]”; in “in vitro [2]”; in data set [3]) was above 30 min each time. The concentration for half-maximal inhibition (IC50) at Collagenase 3 came out at 225 nM.

With `CC(C)COC(=O)Nc1ccc2c(c1)sc1cc(S(=O)(=O)N[C@H](C(=O)O)C(C)C)ccc12`, the half-life (in “in vitro [1]”; in the data set “in vitro [2]”; in data set [3]) was above 30 min each time. For the same molecule, on Collagenase 3, the 50% inhibitory concentration (IC50) amounted to 334 nM.

As to `CC(C)[C@H](NS(=O)(=O)c1ccc2c(c1)sc1cc(N3CCOC3=O)ccc12)C(=O)O`, the half-life (in “in vitro [1]”; in “in vitro [2]”; in data set [3]) was above 30 min in each case. Also, the IC50 on Collagenase 3 came out at 140 nM.

Turning to `CC(C)[C@H](NS(=O)(=O)c1ccc2sc3ccccc3c2c1)C(=O)O`, the IC50 on Collagenase 3 amounted to 60000 nM.

Consider `Cc1ccc(OC(=O)Nc2ccc3c(c2)sc2cc(S(=O)(=O)N[C@H](C(=O)O)C(C)C)ccc23)cc1`, for which the half-life (in “in vitro [1]”; in “in vitro [2]”; in data set [3]) was above 30 min throughout. Further, the IC50 on Collagenase 3 worked out at 235 nM.

As to `CC(C)[C@H](NS(=O)(=O)c1ccc2c(c1)sc1cc(NC(=O)OCCS(C)(=O)=O)ccc12)C(=O)O`, the half-life (in the data set “in vitro [1]”; in the data set “in vitro [2]”; in data set [3]) was above 30 min in each case. The IC50 on Collagenase 3 was 40 nM.

For the molecule `CC(C)[C@@H](NS(=O)(=O)c1ccc2c(c1)sc1ccc(NS(C)(=O)=O)cc12)C(=O)O`, the IC50 at Collagenase 3 stood at 277 nM.

As to `CC(C)OC(=O)Nc1ccc2c(c1)sc1cc(S(=O)(=O)N[C@H](C(=O)O)C(C)C)ccc12`, the half-life (in “in vitro [1]”; in the data set “in vitro [2]”; in data set [3]) was above 30 min throughout. The IC50 on Collagenase 3 turned out to be 147 nM.

Consider `COC(=O)Nc1ccc2c(c1)sc1ccc(S(=O)(=O)N[C@@H](C(=O)O)C(C)C)cc12`, for which the half-life (in the data set “in vitro [1]”; in “in vitro [2]”; in data set [3]) was above 30 min throughout. In addition, on Collagenase 3, the IC50 was above 25000 nM.

On to `CC(C)[C@@H](NS(=O)(=O)c1ccc2c(c1)sc1cc(NC(=O)Nc3ccccc3)ccc12)C(=O)O`, for which the half-life (in the data set “in vitro [1]”; in the data set “in vitro [2]”; in data set [3]) was above 30 min throughout. In addition, the IC50 at Collagenase 3 is 1290 nM.

On to `CC(C)[C@H](NS(=O)(=O)c1ccc2c(c1)oc1cc(N3CCOC3=O)ccc12)C(=O)O`, for which the half-life (in the data set “in vitro [1]”; in “in vitro [2]”; in data set [3]) was above 30 min each time. Besides, the IC50 on Collagenase 3 came out at 370 nM.

For the molecule `CC(C)[C@H](NS(=O)(=O)c1ccc2c(c1)sc1cc(NC(=O)NCCc3cccs3)ccc12)C(=O)O`, the half-life (in “in vitro [1]”; in the data set “in vitro [2]”; in data set [3]) was above 30 min throughout. In addition, the IC50 at Collagenase 3 was found to be 456 nM.

Values taken from ChEMBL document CHEMBL1152446, “Identification of an orally efficacious matrix metalloprotease 12 inhibitor for potential treatment of asthma” (J Med Chem, 2009).
